Source: patent US20210052874A1, “ULTRASOUND DEVICE AND THERAPEUTIC METHODS” (priority 2011, published 2021)

Test: In vitro transdermal delivery of carboxyfluorescein through mouse skin in a Franz diffusion cell, with or without low frequency ultrasound (LFUS)
Format: in vitro ADME
Conditions: for Delivery Efficiency (% of CF delivered) / Enhancement Ratio v. free CF, no LFUS: mouse skin
Description: An in vitro study was performed to evaluate the ability of the present invention to enable transdermal delivery of substantially intact encapsulated drugs. The study involved applying low intensity, low pressure amplitude ultrasound waves to mouse skin in order to mediate transdermal delivery of liposome encapsulated carboxyfluorescein (CF), a hydrophilic dye. […] In this setup, an ultrasound applicator 10 having 4 transducers 12 arranged in a 2×2 array is supported by a custom fixture 80 and in direct communication with a Franz diffusion cell, including a donor compartment 82 filled with a liquid medium interspersed with liposome encapsulated CF and a sample mouse skin. Low frequency ultrasound waves (LFUS) having a low pressure amplitude of about 55 kPa, a low acoustic intensity of about 100 mW/cm^2 and a low frequency of about 17.9 kHz was generated by ultrasound applicator 10 and directed towards a mouse skin sample 84 positioned adjacent to donor compartment 82 for about 4 hours. The amount of liposome encapsulated CF that permeated mouse skin 84 and collected within a receptor compartment 86 surrounded by a water jacket 88 was examined and measured after about 4 hours of ultrasound application when the ultrasound source was turned off and again 8 hours after the start of the experiment. The liposomes were made from 1,2-dioleoyl-sn-glycerol-3-phosphocholine (DOPC), and the liposome encapsulated CF was prepared using the dehydration-rehydration technique described in Kirby, C. and G. Gregoriadis, “Dehydration rehydration vesicles: a simple method for high yield drug entrapment in liposome,” Nature Biotechnology, 1984, 2(11): p. 9′79-984, herein incorporated by reference. In this experiment, encapsulation efficiency of the CF was improved (about 10% to about 30% measured by titration) by minimizing the amount of rehydration buffer used, adjusting pH before rehydration to fully dissolve CF by minimizing the amount of rehydration buffer used, and by adjusting the pH to about 10 and subsequently adjusting the pH to about 7.4 before rehydration. The original encapsulation efficiency of CF was about 0.67% in 100 nm liposomes, using about 5.2 mg CF in the rehydration buffer (about 2.56 mM). […] Tests D1-D2 show the results for liposome encapsulated CF after exposure to 20 minutes of low frequency ultrasound stimulation. Tests E1-3 show the results for liposome encapsulated CF upon exposure to 4 hours of low frequency ultrasound stimulation.

Delivery Efficiency (% of CF delivered) (4 hr simultaneous LFUS): 0.03%
Enhancement Ratio v. free CF, no LFUS (4 hr simultaneous LFUS): 0.00
Amount able to permeate the mouse skin (after 8 hours, not assisted by ultrasound): less than 0.005 M/M
Delivery Efficiency (% of CF delivered) (no LFUS): 0.03%
Enhancement Ratio v. free CF, no LFUS (no LFUS): 0.00
Substance: carboxyfluorescein [Free CF]
